Measurements as given in patent US20260217735A1, “HETEROCYCLES AND USES THEREOF” (Kumquat Biosciences Inc., priority 2023, published 2026).

Assays:
KRAS G12D = biological target: T1, KRAS G12D (Homo sapiens, UniProt P01116, G12D); test: HTRF assay, KRAS G12D interaction with SOS1; type: biochemical; details: bins <500 nM / 500 nM to 1000 nM, read-out: Inhibition of KRAS G12D (IC50)
T1 construct: made in house; host or cells: E. coli, e.g. BL21 (DE3)

KRAS WT = biological target: T2, KRAS WT (Homo sapiens, UniProt P01116); test: HTRF assay, wildtype KRAS interaction with SOS1; type: biochemical; details: bins <500 nM / 500 nM to 1000 nM, read-out: Inhibition of KRAS WT (IC50)
T2 construct: made in house; host or cells: E. coli, e.g. BL21 (DE3)
T2 sequence (P01116 1-188 isoform P01116-2): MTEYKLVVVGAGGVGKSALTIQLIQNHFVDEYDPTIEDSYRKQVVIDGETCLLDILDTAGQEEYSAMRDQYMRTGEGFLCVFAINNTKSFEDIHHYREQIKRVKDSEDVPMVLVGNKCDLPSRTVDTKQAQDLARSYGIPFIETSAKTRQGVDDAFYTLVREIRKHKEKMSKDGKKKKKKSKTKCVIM

KRAS G12V = biological target: T3, KRAS G12V (Homo sapiens, UniProt P01116, G12V); test: HTRF assay, KRAS G12V interaction with SOS1; type: biochemical; details: bins <500 nM / 500 nM to 1000 nM, read-out: Inhibition of KRAS G12V (IC50)
T3 construct: made in house; host or cells: E. coli, e.g. BL21 (DE3)
T3 sequence (P01116 1-188 isoform P01116-2 G12V): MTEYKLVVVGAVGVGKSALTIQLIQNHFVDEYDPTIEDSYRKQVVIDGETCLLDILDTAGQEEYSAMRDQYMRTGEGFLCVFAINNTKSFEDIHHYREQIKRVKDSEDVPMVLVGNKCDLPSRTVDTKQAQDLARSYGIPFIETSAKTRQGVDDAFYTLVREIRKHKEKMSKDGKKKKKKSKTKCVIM

KRAS G12S = biological target: T4, KRAS G12S (Homo sapiens, UniProt P01116, G12S); test: HTRF assay, KRAS G12S interaction with SOS1; type: biochemical; details: bins <500 nM / 500 nM to 1000 nM, read-out: Inhibition of KRAS G12S (IC50)
T4 construct: made in house; host or cells: E. coli, e.g. BL21 (DE3)
T4 sequence (P01116 1-188 isoform P01116-2 G12S): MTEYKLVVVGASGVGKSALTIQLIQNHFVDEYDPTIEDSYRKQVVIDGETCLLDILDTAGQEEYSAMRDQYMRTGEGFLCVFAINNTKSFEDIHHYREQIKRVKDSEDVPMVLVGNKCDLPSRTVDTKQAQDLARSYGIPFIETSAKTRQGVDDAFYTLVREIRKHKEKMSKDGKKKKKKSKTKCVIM

MiaPaca2 cells = test: Ras cellular assay, growth of cells with K-Ras G12C mutation; type: cell-based; details: Homo sapiens, MIA PaCa-2; cell proliferation assay; bins ≤500 nM / >500 nM; read-out: Inhibition of MiaPaca2 Cells (IC50)
How it was run: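 Anchorage-independent growth: G12C-mutant MIA PaCa-2 plated in soft agar, time-zero plate read the next day when compound was dosed (final DMSO 0.3%). After growth to day 10, MTS-type absorbance at 490/660 nm relative to time zero gave IC50 via four-parameter fitting.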

T1 sequence (P01116 1-188 isoform P01116-2 G12D): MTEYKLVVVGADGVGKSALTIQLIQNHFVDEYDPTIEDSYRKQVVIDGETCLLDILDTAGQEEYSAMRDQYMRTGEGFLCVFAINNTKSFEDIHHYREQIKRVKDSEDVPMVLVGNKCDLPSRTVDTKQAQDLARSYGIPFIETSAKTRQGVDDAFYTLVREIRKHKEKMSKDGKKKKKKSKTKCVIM

| IC50 (KRAS G12D) [µM] | IC50 (KRAS WT) [µM] | IC50 (KRAS G12V) [µM] | IC50 (KRAS G12S) [µM] | IC50 (MiaPaca2 cells) [µM] | Structure (SMILES) |
| --- | --- | --- | --- | --- | --- |
| < 0.5 | < 0.5 | < 0.5 | < 0.5 | ≤ 0.5 | C[C@@H]1[C@H](N(C)c2nc(OC[C@@]34CCCN3C[C@H](F)C4)nc3c(F)c(-c4ccc(F)c5sc(N)c(C#N)c45)c(Cl)cc23)CCN1C(=O)n1cnc(CC#N)c1 [Compound 183, 2-amino-4-(6-chloro-4-(((2R,3R)-1-(4-(cyanomethyl)-1H-imidazole-1-carbonyl)-2-methylpyrrolidin-3-yl)(methyl)amino)-8-fluoro-2-(((2R,7aS)-2-fluorotetrahydro-1H-pyrrolizin-7a(5H)-yl)methoxy)quinazolin-7-yl)-7-fluorobenzo[b]thiophene-3-carbonitrile] |
| < 0.5 | < 0.5 | < 0.5 | < 0.5 | ≤ 0.5 | CC1C(N(C)c2nc(OC[C@@]34CCCN3C[C@H](F)C4)nc3c(F)c(-c4ccc(F)c5sc(N)c(C#N)c45)c(Cl)cc23)CCCN1C(=O)n1ccnc1 (stereo partly drawn) [Compound 187, 4-(4-((1-(1H-imidazole-1-carbonyl)-2-methylpiperidin-3-yl)(methyl)amino)-6-chloro-8-fluoro-2-(((2R,7aS)-2-fluorotetrahydro-1H-pyrrolizin-7a(5H)-yl)methoxy)quinazolin-7-yl)-2-amino-7-fluorobenzo[b]thiophene-3-carbonitrile] |

Continued, compound first:

| Structure (SMILES) | IC50 (KRAS G12D) [µM] | IC50 (KRAS WT) [µM] | IC50 (KRAS G12V) [µM] | IC50 (KRAS G12S) [µM] | IC50 (MiaPaca2 cells) [µM] |
| --- | --- | --- | --- | --- | --- |
| CCN(c1nc(OC[C@@]23CCCN2C[C@H](F)C3)nc2c(F)c(-c3ccc(F)c4sc(N)c(C#N)c34)c(I)cc12)[C@@H]1CCN(C(=O)n2cc(C)nc2C)[C@@H]1C [Compound 184, 2-amino-4-(4-(((2R,3R)-1-(2,4-dimethyl-1H-imidazole-1-carbonyl)-2-methylpyrrolidin-3-yl)(ethyl)amino)-8-fluoro-2-(((2R,7aS)-2-fluorotetrahydro-1H-pyrrolizin-7a(5H)-yl)methoxy)-6-iodoquinazolin-7-yl)-7-fluorobenzo[b]thiophene-3-carbonitrile] | < 0.5 | < 0.5 | < 0.5 | < 0.5 | ≤ 0.5 |
| Cc1c(F)c(N)cc(-c2ncc3c(N(C)[C@@H]4CCN(C(=O)n5cnc(F)n5)[C@@H]4C)nc(OC[C@@]45CCCN4C[C@H](F)C5)nc3c2F)c1C(F)(F)F [Compound 185, ((2R,3R)-3-((7-(5-amino-4-fluoro-3-methyl-2-(trifluoromethyl)phenyl)-8-fluoro-2-(((2R,7aS)-2-fluorotetrahydro-1H-pyrrolizin-7a(5H)-yl)methoxy)pyrido[4,3-d]pyrimidin-4-yl)(methyl)amino)-2-methylpyrrolidin-1-yl)(3-fluoro-1H-1,2,4-triazol-1-yl)methanone] | < 0.5 | < 0.5 | < 0.5 | < 0.5 | ≤ 0.5 |
| CCN(c1nc(OC[C@@]23CCCN2C[C@H](F)C3)nc2c(F)c(-c3ccc(F)c4sc(N)c(C#N)c34)c(Cl)cc12)[C@@H]1CCN(C(=O)n2ccnc2Cl)[C@@H]1C [Compound 186, 2-amino-4-(6-chloro-4-(((2R,3R)-1-(2-chloro-1H-imidazole-1-carbonyl)-2-methylpyrrolidin-3-yl)(ethyl)amino)-8-fluoro-2-(((2R,7aS)-2-fluorotetrahydro-1H-pyrrolizin-7a(5H)-yl)methoxy)quinazolin-7-yl)-7-fluorobenzo[b]thiophene-3-carbonitrile] | < 0.5 | < 0.5 | < 0.5 | < 0.5 | ≤ 0.5 |
| CCN(c1nc(OC[C@@]23CCCN2C[C@H](F)C3)nc2c(F)c(-c3ccc(F)c4sc(N)c(C#N)c34)c(Cl)cc12)[C@@H]1CCN(C(=O)n2ccnc2C#N)[C@@H]1C [Compound 188, 1-((2R,3R)-3-((7-(2-amino-3-cyano-7-fluorobenzo[b]thiophen-4-yl)-6-chloro-8-fluoro-2-(((2R,7aS)-2-fluorotetrahydro-1H-pyrrolizin-7a(5H)-yl)methoxy)quinazolin-4-yl)(ethyl)amino)-2-methylpyrrolidine-1-carbonyl)-1H-imidazole-2-carbonitrile] | < 0.5 | < 0.5 | < 0.5 | < 0.5 | ≤ 0.5 |
